Consider 34 compounds from ChEMBL document CHEMBL3621042, “Design, synthesis of novel tryptophan derivatives for antiplatelet aggregation activity based on tripeptide pENW (pGlu-Asn-Trp)” (Eur J Med Chem, 2015).

pIC50: −log10 of the molar value. Calls of active or inactive are those of the source. No cut-off for these calls is given here. Square brackets hold non-standard residues; d marks the D form. Peptide text beside a SMILES is read from it. pGlu = O=C1CC[C@@H](C(=O)O)N1

Data set [1] deals with T1, Integrin alpha-IIb/beta-3 (Oryctolagus cuniculus) (UniProt Q9TUN4+Q9TUN3). In words: Antagonist activity at GP2b/3a receptor in New Zealand rabbit platelet-rich plasma assessed as inhibition of ADP-induced platelet aggregation at 500 uM preincubated for 1 min followed by addition of ADP by aggregometer.
Data set [2] has as its target T1, Integrin alpha-IIb/beta-3 (Oryctolagus cuniculus). In words: Antagonist activity at GP2b/3a receptor in New Zealand rabbit platelet-rich plasma assessed as inhibition of ADP-induced platelet aggregation at 100 uM preincubated for 1 min followed by addition of ADP by aggregometer.
The target of data set [3] is Integrin alpha-IIb/beta-3 (Homo sapiens, UniProt P05106+P08514). In words: Antagonist activity at GP2b/3a receptor (unknown origin) assessed as inhibition of interaction with fibrinogen after 2 hrs by ELISA. Format: protein-complex assay. (In general: In an ELISA, binding on a coated surface is turned into a signal by an enzyme label.)
The test system of data set [4] is Mus musculus. In words: Toxicity in ICR mouse assessed as bleeding time at 1 mg/kg incubated for 30 mins prior to testing by tail transection method. Format: organism-based. The settings on record: in vivo, 0.5 h.
In data set [5] the test system is Rattus norvegicus. In words: Antithrombotic activity in Sprague-Dawley rat arteriovenous shunt thrombosis model assessed as wet/dry weight reduction of thrombus at 1 mg/kg, iv incubated for 30 mins prior to testing. Format: functional.
Data set [6] addresses T1, Integrin alpha-IIb/beta-3 (Oryctolagus cuniculus). The settings on record: New Zealand, Plasma, 1 to 1000 uM.
Description: Antagonist activity at GP2b/3a receptor in New Zealand rabbit platelet-rich plasma assessed as inhibition of ADP-induced platelet aggregation at 1 to 1000 uM preincubated for 1 min followed by addition of ADP by aggregometer
For data set [7], the system named is Mus musculus. In words: Toxicity in ICR mouse assessed as bleeding time at 3 mg/kg incubated for 30 mins prior to testing by tail transection method. Format: organism-based. The settings on record: in vivo, 0.5 h.
The test system of data set [8] is Rattus norvegicus. In words: Antithrombotic activity in iv dosed Sprague-Dawley rat arteriovenous shunt thrombosis model assessed as wet/dry weight reduction of thrombus incubated for 30 mins prior to testing. Format: functional, organism-based.
In data set [9] the test system is Mus musculus. In words: Toxicity in ICR mouse assessed as bleeding time at 0.3 mg/kg incubated for 30 mins prior to testing by tail transection method. Format: organism-based. The settings on record: in vivo, 0.5 h.
Data set [10] has as its system Rattus norvegicus. In words: Antithrombotic activity in Sprague-Dawley rat arteriovenous shunt thrombosis model assessed as wet/dry weight reduction of thrombus at 3 mg/kg, iv incubated for 30 mins prior to testing. It counts as functional. More on the design: scale not given: the % may be the effect or the level left.

Chain of Integrin alpha-IIb/beta-3 (P05106 27-788 limits assumed): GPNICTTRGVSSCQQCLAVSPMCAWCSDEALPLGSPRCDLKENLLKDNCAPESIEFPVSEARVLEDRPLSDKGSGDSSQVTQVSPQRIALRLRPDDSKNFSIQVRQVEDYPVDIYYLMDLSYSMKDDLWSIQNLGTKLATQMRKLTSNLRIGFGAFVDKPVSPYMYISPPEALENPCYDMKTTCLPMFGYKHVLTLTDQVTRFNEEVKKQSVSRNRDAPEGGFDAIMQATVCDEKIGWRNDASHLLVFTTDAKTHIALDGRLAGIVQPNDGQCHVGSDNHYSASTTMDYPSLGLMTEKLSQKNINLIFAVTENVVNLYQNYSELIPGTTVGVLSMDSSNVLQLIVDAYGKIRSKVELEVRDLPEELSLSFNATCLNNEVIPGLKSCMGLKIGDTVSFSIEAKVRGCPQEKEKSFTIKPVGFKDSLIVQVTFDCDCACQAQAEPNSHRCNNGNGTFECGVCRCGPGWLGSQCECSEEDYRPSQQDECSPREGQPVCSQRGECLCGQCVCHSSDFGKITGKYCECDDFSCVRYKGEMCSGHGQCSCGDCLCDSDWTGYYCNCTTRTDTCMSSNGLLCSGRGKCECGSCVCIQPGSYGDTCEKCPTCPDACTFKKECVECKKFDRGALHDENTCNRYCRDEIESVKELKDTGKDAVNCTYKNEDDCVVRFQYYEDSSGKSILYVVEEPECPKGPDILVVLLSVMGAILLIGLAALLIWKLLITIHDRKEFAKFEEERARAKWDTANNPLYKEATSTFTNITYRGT
Chain of Integrin alpha-IIb/beta-3 (P08514 32-887 limits assumed): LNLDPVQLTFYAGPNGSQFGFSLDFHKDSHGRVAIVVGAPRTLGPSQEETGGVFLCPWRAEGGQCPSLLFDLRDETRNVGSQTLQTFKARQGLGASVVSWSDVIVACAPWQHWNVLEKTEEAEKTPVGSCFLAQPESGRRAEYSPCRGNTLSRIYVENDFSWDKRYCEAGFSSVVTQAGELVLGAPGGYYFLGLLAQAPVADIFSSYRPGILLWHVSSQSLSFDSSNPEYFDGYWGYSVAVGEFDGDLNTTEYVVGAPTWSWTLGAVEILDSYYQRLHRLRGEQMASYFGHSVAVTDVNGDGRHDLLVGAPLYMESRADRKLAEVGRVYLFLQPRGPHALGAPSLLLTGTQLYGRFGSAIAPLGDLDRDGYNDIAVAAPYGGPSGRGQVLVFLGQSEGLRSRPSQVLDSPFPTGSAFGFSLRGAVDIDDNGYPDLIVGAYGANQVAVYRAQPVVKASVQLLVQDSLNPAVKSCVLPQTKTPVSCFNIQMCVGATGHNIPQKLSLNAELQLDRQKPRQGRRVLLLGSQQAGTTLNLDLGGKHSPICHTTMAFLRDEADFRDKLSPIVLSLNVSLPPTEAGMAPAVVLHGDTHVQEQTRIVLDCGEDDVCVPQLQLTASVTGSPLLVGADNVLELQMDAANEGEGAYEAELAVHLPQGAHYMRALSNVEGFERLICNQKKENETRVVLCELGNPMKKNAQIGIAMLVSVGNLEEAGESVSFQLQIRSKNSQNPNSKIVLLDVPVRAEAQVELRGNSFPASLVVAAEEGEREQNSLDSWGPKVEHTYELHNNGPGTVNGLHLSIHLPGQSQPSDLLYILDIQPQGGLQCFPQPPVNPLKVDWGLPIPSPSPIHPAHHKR
Chain of Integrin alpha-IIb/beta-3 (P08514 891-1039 limits assumed): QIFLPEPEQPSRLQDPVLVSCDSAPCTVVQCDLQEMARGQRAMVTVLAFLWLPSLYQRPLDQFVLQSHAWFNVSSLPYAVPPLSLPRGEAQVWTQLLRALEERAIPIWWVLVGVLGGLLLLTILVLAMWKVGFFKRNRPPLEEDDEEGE

As for `CCCCS(=O)(=O)N[C@@H](Cc1c[nH]c2ccc(OCCCN3CCNCC3)cc12)C(=O)O`, the inhibition in [1] is 88.9%.
For `O=C(O)[C@H](Cc1c[nH]c2ccc(OCCCCC3CCNCC3)cc12)NS(=O)(=O)c1ccccc1`, the inhibition was determined as 99.2% in [1] and 53.8% in [2].
Take `CCCC(=O)N[C@@H](Cc1c[nH]c2ccc(OCCN3CCN(C)CC3)cc12)C(=O)O`: the inhibition in data set [1] worked out at 12.4%.
Turning to `O=C(N[C@@H](Cc1c[nH]c2ccc(OCCCCC3CCNCC3)cc12)C(=O)O)c1cc(Cl)cc(Cl)c1`, the inhibition in data set [2] stood at 62.7%.
As to `O=C(N[C@@H](Cc1c[nH]c2ccc(OCCCCC3CCNCC3)cc12)C(=O)O)c1cccc(F)c1`, in [2], the inhibition was 53.4%.
For the compound `NC(=O)C[C@H](NC(=O)[C@@H]1CCC(=O)N1)C(=O)N[C@@H](Cc1c[nH]c2ccccc12)C(=O)O` ([pGlu]-Asn-Trp-OH), the pIC50 in data set [3] is 4.90. The Activity result in data set [4] is “Non-toxic”. Besides, the result in [5] was inactive. Further, the inhibition in data set [1] was 38.7%; in [2], 21.4%.
With `CCCCS(=O)(=O)N[C@@H](Cc1ccc(OCCCCC2CCNCC2)cc1)C(=O)O` [TIROFIBAN], in data set [6], the inhibition result is “Active”. The Time in data set [4] was 17 min. The result in [5] was Active.
Turning to `O=C(O)[C@H](Cc1c[nH]c2ccc(OCCCN3CCNCC3)cc12)NS(=O)(=O)c1ccccc1`, the inhibition in data set [1] came out at 55.3%.
As to `O=C(N[C@@H](Cc1c[nH]c2ccc(OCCCC3CCNCC3)cc12)C(=O)O)c1ccccc1`, the inhibition in data set [1] amounted to 92.7%.
As for `O=C(O)[C@H](Cc1c[nH]c2ccc(OCCCCN3CCNCC3)cc12)NS(=O)(=O)c1ccccc1`, the inhibition in data set [1] was 57.5%.
Regarding `CCCCS(=O)(=O)N[C@@H](Cc1c[nH]c2ccc(OCCCCN3CCNCC3)cc12)C(=O)O`, in data set [1], the inhibition is 61.2%.
Take `O=C(N[C@@H](Cc1c[nH]c2ccc(OCCCN3CCNCC3)cc12)C(=O)O)c1ccccc1`: the inhibition in data set [1] stood at 82.4%.
In the case of `O=C(N[C@@H](Cc1c[nH]c2ccc(OCCCCC3CCNCC3)cc12)C(=O)O)c1ccc([N+](=O)[O-])cc1`, in [2], the inhibition came to 43.5%.
Consider `O=C(N[C@@H](Cc1c[nH]c2ccc(OCCCCC3CCNCC3)cc12)C(=O)O)c1ccccc1`, for which the inhibition is 96.2% in [1] and 27.9% in [2].
With `CCCC(=O)N[C@@H](Cc1c[nH]c2ccc(OCCCN3CCNCC3)cc12)C(=O)O`, in [1], the inhibition was 84.3%.
With `CCCCS(=O)(=O)N[C@@H](Cc1c[nH]c2ccc(OCCCCC3CCNCC3)cc12)C(=O)O`, the inhibition in data set [1] came to 52.4%.
As for `CCCC(=O)N[C@@H](Cc1c[nH]c2ccc(OCCCCN3CCNCC3)cc12)C(=O)O`, the inhibition in [1] came out at 79.1%.
For `O=C(O)[C@H](Cc1c[nH]c2ccc(OCCCC3CCNCC3)cc12)NS(=O)(=O)c1ccccc1`, in [1], the inhibition was 94.5%.
`COc1ccc(C(=O)N[C@@H](Cc2c[nH]c3ccc(OCCCCC4CCNCC4)cc23)C(=O)O)cc1`: the inhibition in [2] came out at 38.3%.
For the compound `CCCCS(=O)(=O)N[C@@H](Cc1c[nH]c2ccc(OCCCC3CCNCC3)cc12)C(=O)O`, in data set [1], the inhibition was 73.3%.
As for `CCCC(=O)N[C@@H](Cc1c[nH]c2ccc(OCCCCC3CCNCC3)cc12)C(=O)O`, the inhibition in data set [1] is 53.3%.
For `CC(=O)N[C@@H](CC(N)=O)C(=O)N[C@@H](Cc1c[nH]c2ccccc12)C(=O)O` (Ac-Asn-Trp-OH), the inhibition in data set [1] amounted to 35.2%.
`CC(=O)N[C@@H](CC(N)=O)C(=O)N[C@@H](Cc1c[nH]c2ccc(OCCCC3CCNCC3)cc12)C(=O)O`: in data set [1], the inhibition worked out at 51.4%.
`CCCC(=O)N[C@@H](Cc1c[nH]c2ccc(OCCC3CCNCC3)cc12)C(=O)O`: in data set [1], the inhibition was found to be 29.5%.
Consider `O=C(N[C@@H](Cc1c[nH]c2ccc(OCCCCC3CCNCC3)cc12)C(=O)O)c1ccc(F)cc1`, for which the inhibition in [2] is 54.9%.
On the same count and under the same terms, next, `Cc1ccc(S(=O)(=O)N[C@@H](Cc2c[nH]c3ccc(OCCCCC4CCNCC4)cc23)C(=O)O)cc1`: 43.1%.
Take `O=C(O)[C@H](Cc1c[nH]c2ccc(OCCCCC3CCNCC3)cc12)NS(=O)(=O)c1ccc(Br)cc1`: the values for the Time in data set [7], in data set [4] and in [9] were 13.5 min, 11.8 min and 10.6 min, respectively. Besides, the Activity entry was “Dose-dependent effect” in data set [8], 26.6% in data set [5] and 41.7% in [10]. Moreover, the inhibition in data set [2] amounted to 81.2%.
In the case of `O=C(O)[C@H](Cc1c[nH]c2ccc(OCCCCC3CCNCC3)cc12)NS(=O)(=O)c1ccc([N+](=O)[O-])cc1`, in data set [2], the inhibition was found to be 45.3%.
Consider `O=C(O)[C@H](Cc1c[nH]c2ccc(OCCCCC3CCNCC3)cc12)NS(=O)(=O)c1ccc(F)cc1`, for which the inhibition in data set [2] was found to be 57.1%.
Regarding `COc1ccc(S(=O)(=O)N[C@@H](Cc2c[nH]c3ccc(OCCCCC4CCNCC4)cc23)C(=O)O)cc1`, the inhibition in data set [2] turned out to be 39.3%.
On to `CCCC(=O)N[C@@H](Cc1c[nH]c2ccc(OCCCC3CCNCC3)cc12)C(=O)O`, for which the inhibition in data set [1] was found to be 71.2%.
With `CCCC(=O)N[C@@H](Cc1c[nH]c2ccc(OCCCN3CCN(C)CC3)cc12)C(=O)O`, the inhibition in data set [1] was found to be 13.5%.
In the case of `O=C(N[C@@H](Cc1c[nH]c2ccc(OCCCCN3CCNCC3)cc12)C(=O)O)c1ccccc1`, the inhibition in data set [1] came out at 83.3%.
`CCCC(=O)N[C@@H](Cc1c[nH]c2ccc(OCCN3CCNCC3)cc12)C(=O)O`: the inhibition in [1] worked out at 58.3%.

Usually inhibition stands for the drop in the measured response relative to a control, in per cent. A word on the pIC50: it is −log10 of the IC50, conventionally taken in molar units.
